Measured values: US7273848B2, “Apolipoprotein A-I agonists and their use to treat dyslipidemic disorders” (priority 1997, dated 2007)
No end group written: not given here.

Tests used:
[1] = molecular target: T1, LCAT (purified from human plasma) (Homo sapiens, UniProt P04180); assay: LCAT activation assay; assay type: biochemical; settings: LCAT activation as compared with native human ApoA-I (= 100%), equivalent masses
T1 construct: from tissue; host or cells: human plasma
T1 sequence (P04180 25-440): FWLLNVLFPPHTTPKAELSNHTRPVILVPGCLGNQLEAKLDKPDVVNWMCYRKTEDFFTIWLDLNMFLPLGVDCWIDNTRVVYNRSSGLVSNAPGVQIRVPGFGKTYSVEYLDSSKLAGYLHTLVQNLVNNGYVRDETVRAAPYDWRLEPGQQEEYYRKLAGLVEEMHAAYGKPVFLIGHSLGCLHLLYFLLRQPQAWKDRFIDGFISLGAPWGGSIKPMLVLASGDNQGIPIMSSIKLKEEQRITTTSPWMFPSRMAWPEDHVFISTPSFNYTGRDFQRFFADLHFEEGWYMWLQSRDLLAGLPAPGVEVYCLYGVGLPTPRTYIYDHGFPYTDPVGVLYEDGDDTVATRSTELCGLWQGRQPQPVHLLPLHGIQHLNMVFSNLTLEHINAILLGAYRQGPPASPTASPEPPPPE
Summary of the method: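 Substrate SUVs of EPC or POPC with 14C-cholesterol (20:1 molar ratio), in 10 mM Tris, 0.14 M NaCl, 1 mM EDTA, pH 7.4, were preincubated with peptide or equal mass of plasma ApoA-I. Reaction started with human plasma LCAT; activation was measured as cholesterol-to-ester conversion relative to ApoA-I (100%).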

[2] = Circular dichroism helicity determination; assay type: physicochemical; settings: percent helicity; for He (%) TFE: 5 μM peptide, 90% vol TFE; for He (%) free: unbound peptide 5 μM in 5 mM phosphate buffer, pH 7.4, 37° C.; for He (%) mics: peptide-micelle complexes, Ri=100, 37° C.
Summary of the method: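 Far-UV CD (190–260 nm) at 37° C on 5 μM peptide in 5 mM phosphate pH 7.4, free, with EPC:Chol 20:1 SUVs (Ri 30 or 50), lysophosphatidylcholine micelles (Ri 100) or 90% TFE. Spectra converted to molar ellipticity per residue; helicity from 222 nm ellipticity or CONTIN fitting to reference spectra, ±5%.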

Sequence	ACTIVITY (%) LCAT [1]	He (%) TFE ([2]; 37° C.)	He (%) free [2]	He (%) SUVs ([2]; peptide-SUV complexes (20:1 EPC:Chol., Ri=30 and Ri=50), 37° C.)	He (%) mics [2]
PVLELFENLLERLLDALQKKLK [peptide 146]	86%	95%	97%	100%	100%
PVLELFENLWERLLDALQKKLK [peptide 149]	63%	47%	28%		54%
